Experimental data from US11026944B2, “Compositions and methods for treating insomnia” (Eisai R&D Management Co., Ltd., priority 2014, dated 2021).

Columns and labels:
[1] = tested on: subjects with primary insomnia; test: 001 Study Part B: next day KSS, DSST, PVT; format: in vivo, human; conditions: any dose of compound A (2.5, 10, 25 mg); zolpidem 10 mg
Excerpt: (§1) After the initial Screening visit, eligible subjects were scheduled to return to the clinic for 2 days during the Screening Period to conduct screening/baseline PSGs. These two days occurred at least 3 days after the initial Screening visit and within a window from Day-7 to Day-6 (±2 days). The first PSG was used to screen for sleep apnea and periodic limb movements in sleep (PLMS) and serve as the first baseline PSG. The second PSG was used as the second baseline PSG. Specific PSG variables were used to determine whether subjects met PSG inclusion criteria, and the average of PSG variables from these two PSGs was used as Baseline for this PD measure. Subjects who had met PSG inclusion criteria returned to the clinic on Day-1 for additional baseline procedures and randomization. Subjects were not allowed to nap on Day 1. On the evening of Day 1, after fasting a minimum of 3 hours, study drug was administered 30 minutes prior to the subject's habitual bedtime (lights-out), as calculated from the sleep diary for the first PSG during the Screening Period. PK blood samples were collected at prespecified timepoints, and PD assessments were performed. PSG was recorded on Day 1, postdose. Subjects were administered additional PD assessments each morning on Day 1 through Day 6. These assessments included the KSS, DSST, and PVT, in order to assess daytime sleepiness, level of alertness, and ability to concentrate. The KSS and DSST were also administered 5 minutes predose and 25 minutes postdose on Day 1, just prior to lights-out. Waketime Questionnaires were administered after the PD assessments within 15 minutes of lights-on, on Day 1 to Day 6. Time and duration of naps was recorded on Day 2.
Part B subjects were administered the KSS, DSST, and PVT within 15 minutes after lights-on specifically in that order, on each morning from Day 1 through Day 6, followed by the Waketime Questionnaire. The KSS and DSST were also administered 5 minutes predose and 25 minutes postdose on Day 1 (just prior to lights-out).

[2] = tested on: subjects with primary insomnia; test: 001 Study Part B: polysomnography (LPS, WASO, SE); format: in vivo, human; conditions: zolpidem 10 mg single evening dose
Excerpt: For Part B, 58 otherwise healthy subjects with primary insomnia were randomized across three cohorts, and stratified by gender. Part B also included an active control (zolpidem) and matching placebo. In each cohort, there were approximately 12 subjects in the compound A/zolpidem-matched placebo group, approximately four subjects in the zolpidem/compound A-matched placebo group, and approximately four subjects in the compound A-matched placebo/zolpidem-matched placebo group. Part B dosing occurred in the evening, 30 minutes prior to the sleep period. The starting dose for Part B was 3 dose levels that determined to be safe and well tolerated in Part A. Subsequent dose levels in Part B were determined based on the PD results of the first cohort in Part B and PD and safety results from at least 3 completed higher dose cohorts in Part A. Each cohort in Part B was divided into at least two groups, with dosing of each group staggered by a minimum of 2 days.
as §1
In addition, PSG was performed during the Screening Period at Days-7 and -6 (±2 days), and postdose on Day 1. An 8-hour diagnostic PSG consisting of electroencephalogram (EEG), electrooculogram (EOG), electromyogram (EMG), ECGs, leg electrodes, and measures of respiratory function (airflow, respiratory effort, and oxygen saturation) were performed starting at the subject's habitual bedtime as determined from the sleep diary for the 3 nights immediately prior to the first PSG on Day-7 (±2 days). PSG variables from this night were used to screen for sleep apnea and PLMS. On Day-6 (±2) and postdose on Day1, standard PSGs (i.e., not including leg electrodes or measures of respiratory function other than oxygen saturation) were performed. Specified PSG variables from these two PSGs conducted during the Screening Period were used to determine whether subjects met PSG inclusion criteria. The average of PSG variables from these two PSGs conducted during the Screening Period were used as baseline PSG values. The key PD parameters such as PSG LPS, TST, SE, and WASO have been obtained from all PSG recordings.

## Cc1ccc(-c2nc3ccc(C)cn3c2CC(=O)N(C)C)cc1 [zolpidem, reference compound]
[1]
  next day effects on KSS, DSST, or PVT: no clinically significant next day effects
[2]
  change from Baseline in SE: 13%
